From patent US10808005B2, “Ligand for orphan nuclear receptor Nur77 and uses thereof” (IXMEDICINE (XIAMEN) BIOLOGICAL TECHNOLOGY COMPANY LIMITED, priority 2016, dated 2020)
pIC50, pKd: −log10 of the molar value. Like-named read-outs stand apart in the source and are kept apart here.

Experiments:
[1] = test system: MDA-MB-231; assay: Proliferation of MDA-MB-231 breast cancer cells; assay type: cell-based; conditions: Homo sapiens
[2] = test system: MDA-MB-231 cells; assay: Immunoblot of parp (apoptosis) in MDA-MB-231 cells; assay type: cell-based; conditions: 4 μM and TNFα (20 ng/ml)
[3] = test system: BT474, ZR-75-1, BT549, HCC1937, HS578T, MCF-7, and T47D; assay: Inhibition rate on seven breast cancer cells; assay type: cell-based; conditions: various breast cancer cells, FIG. 11C
[4] = test system: IκBα and phosphorylated IKKα/β; assay: Immunoblot of IκBα and phosphorylated IKKα/β in TNFα-treated HepG2 cells; assay type: cell-based; conditions: TNFα 20 ng/mL 30 minutes
Excerpt: IκBα and phosphorylated IKKα/β in the cells were then detected by WB.
In addition, HepG2 cells were also applied in the experiment. […] IκBα in the cells was then detected by WB.

[5] = test system: mTOR signaling pathway; assay: Immunoblot of p-mTOR, p-P70S6K, p-S6 in TNFα-treated starved MDA-MB-231 cells; assay type: cell-based; conditions: MDA-MB-231, serum-free 10 h; 2 μM and TNFα (20 ng/ml)
[6] = target: Nur77-LBD (Homo sapiens, UniProt P22736); assay: Surface plasmon resonance (Biacore T200) binding to Nur77-LBD
Nur77-LBD, sequence (P22736 360-595 limits assumed): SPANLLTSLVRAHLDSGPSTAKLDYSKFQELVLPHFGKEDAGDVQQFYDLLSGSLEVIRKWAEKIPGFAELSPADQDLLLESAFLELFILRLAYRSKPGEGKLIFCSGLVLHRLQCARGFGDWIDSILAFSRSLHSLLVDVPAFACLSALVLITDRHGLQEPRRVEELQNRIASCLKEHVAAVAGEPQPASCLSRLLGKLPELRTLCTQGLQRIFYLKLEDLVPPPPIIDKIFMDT

[7] = test system: MCF-7; assay: Proliferation of MCF-7 breast cancer cells; assay type: cell-based; conditions: Homo sapiens, read-out: IC50 for inhibiting the proliferation
[8] = test system: BT549; assay: Proliferation of BT549 breast cancer cells; assay type: cell-based; conditions: Homo sapiens, BT-549; BT549, 72 h; read-out: IC50 for inhibiting the proliferation
[9] = test system: SKBR3; assay: Proliferation of SKBR3 breast cancer cells; assay type: cell-based; conditions: Homo sapiens, SK-BR-3; SKBR3, 72 h; read-out: IC50 for inhibiting the proliferation
[10] = test system: wild-type Hela cells; assay: Proliferation of wild-type Hela cells; assay type: cell-based; conditions: Homo sapiens
[11] = Acute toxicity model mice, histopathology; assay type: in vivo
Excerpt: The tissue morphologies of the heart, liver, small intestine, white fat and kidney were observed by Histopathological method.

[12] = test system: T47D; assay: Proliferation of T47D breast cancer cells; assay type: cell-based; conditions: Homo sapiens, 72 h, read-out: IC50 for inhibiting the proliferation
[13] = test system: Nur77 knocked-out Hela cells; assay: Proliferation of Nur77 knocked-out Hela cells; assay type: cell-based; conditions: Homo sapiens
[14] = test system: MDA-MB-468; assay: Proliferation of MDA-MB-468 breast cancer cells; assay type: cell-based; conditions: Homo sapiens, MDA-MB-468, 72 h; read-out: IC50 for inhibiting the proliferation
[15] = MDA-MB-231, FIG. 11B, read-out: IC50 for the inhibition of proliferation
[16] = Biacore T200, read-out: dissociation constant (Kd) to Nur77-LBD
[17] = single intragastric injection 200 mg/kg
[18] = single intraperitoneal injection 20 mg/kg

## COC(=O)[C@]1(C)CC[C@]2(C)CC[C@]3(C)C4=CC=C5C(=CC(=O)C(O)=C5C)[C@]4(C)CC[C@@]3(C)[C@@H]2C1 [XS0077]
[1]; MDA-MB-231, read-out: IC50 for the inhibition of proliferation
  pIC50: 5.74
[2]
  PARP cleavage in comparison with YXY101: can more significantly induce PARP cleavage

## CC1=C(O)C(=O)C=C2C1=CC=C1[C@@]2(C)CC[C@@]2(C)[C@@H]3C[C@](C)(C(=O)OCc4ccccc4)CC[C@]3(C)CC[C@]12C [XS0285]
[3]
  inhibitory effects on proliferation compared with YXY101: close or even stronger than that of YXY101

## COc1ccc(NC(=O)[C@]2(C)CC[C@]3(C)CC[C@]4(C)C5=CC=C6C(=CC(=O)C(O)=C6C)[C@]5(C)CC[C@@]4(C)[C@@H]3C2)cc1 [XS0287]
[4]
  TNFα-induced degradation of IκBα: capable of inhibiting TNFα-induced degradation of IκBα

## Cc1c(O)c(O)cc2c1CCC1[C@@]2(C)CC[C@@]2(C)[C@@H]3C[C@](C)(C(=O)O)CC[C@]3(C)CC[C@]12C (stereo partly shown) [XS0335]
[1]; [15]
  pIC50: 5.73
[5]
  P-mTOR, P-p70S6K, and P—S6 in comparison with YXY101: can more significantly reduce P-mTOR, P-p70S6K, and P—S6

## CCOC(=O)OC1=C(C)C2=CC=C3[C@@](C)(CC[C@@]4(C)[C@@H]5C[C@](C)(C(=O)O)CC[C@]5(C)CC[C@]34C)C2=CC1=O [XS0394]
[6]; [16]
  pKd: 5.90
[5]
  P-mTOR, P-p70S6K, and P—S6 in comparison with YXY101: can more significantly reduce P-mTOR, P-p70S6K, and P—S6

## CCOC(=O)COC(=O)[C@]1(C)CC[C@]2(C)CC[C@]3(C)C4=CC=C5C(=CC(=O)C(O)=C5C)[C@]4(C)CC[C@@]3(C)[C@@H]2C1 [XS0418]
[2]
  PARP cleavage in comparison with YXY101: can more significantly induce PARP cleavage
[6]; [16]
  pKd: 5.44
[3]
  inhibitory effects on proliferation compared with YXY101: close or even stronger than that of YXY101
[5]
  P-mTOR, P-p70S6K, and P—S6 in comparison with YXY101: can more significantly reduce P-mTOR, P-p70S6K, and P—S6

## Cc1c(O)c(O)cc2c1CC=C1[C@@]2(C)CC[C@@]2(C)[C@@H]3C[C@](C)(C(=O)O)CC[C@]3(C)CC[C@]12C [XS0419]
[1]; [15]
  pIC50: 5.90
[2]
  PARP cleavage in comparison with YXY101: can more significantly induce PARP cleavage
[6]
  pKd: 6.39
[3]
  inhibitory effects on proliferation compared with YXY101: close or even stronger than that of YXY101
[5]
  P-mTOR, P-p70S6K, and P—S6 in comparison with YXY101: can more significantly reduce P-mTOR, P-p70S6K, and P—S6

## CCOC(=O)[C@]1(C)CC[C@]2(C)CC[C@]3(C)C4=CC=C5C(=CC(=O)C(O)=C5C)[C@]4(C)CC[C@@]3(C)[C@@H]2C1 [XS0462]
[3]
  inhibitory effects on proliferation compared with YXY101: close or even stronger than that of YXY101

## [2H]C1C=C2[C@@](C)(CC[C@@]3(C)[C@@H]4C[C@](C)(C(=O)O)CC[C@]4(C)CC[C@]23C)c2cc(O)c(O)c(C)c21 (stereo partly shown) [XS0474]
[1]; [15]
  pIC50: 5.53
[6]
  pKd: 5.59
[5]
  P-mTOR, P-p70S6K, and P—S6 in comparison with YXY101: can more significantly reduce P-mTOR, P-p70S6K, and P—S6

## COP(=O)(OC)OC(=O)[C@]1(C)CC[C@]2(C)CC[C@]3(C)C4=CC=C5C(=CC(=O)C(O)=C5C)[C@]4(C)CC[C@@]3(C)[C@@H]2C1 [XS0486]
[5]
  P-mTOR, P-p70S6K, and P—S6 in comparison with YXY101: can more significantly reduce P-mTOR, P-p70S6K, and P—S6

## CCCC(=O)OC1=C(C)C2=CC=C3[C@@](C)(CC[C@@]4(C)[C@@H]5C[C@](C)(C(=O)OC)CC[C@]5(C)CC[C@]34C)C2=CC1=O [XS0488]
[1]; [15]
  pIC50: 5.72
[6]; [16]
  pKd: 5.89
[3]
  inhibitory effects on proliferation compared with YXY101: close or even stronger than that of YXY101

## CCOP(=O)(OCC)OC(=O)[C@]1(C)CC[C@]2(C)CC[C@]3(C)C4=CC=C5C(=CC(=O)C(O)=C5C)[C@]4(C)CC[C@@]3(C)[C@@H]2C1 [XS0491]
[6]
  pKd: 6.47
[5]
  P-mTOR, P-p70S6K, and P—S6 in comparison with YXY101: can more significantly reduce P-mTOR, P-p70S6K, and P—S6

## CC1=C(O)C(=O)C=C2C1=CC=C1[C@@]2(C)CC[C@@]2(C)[C@@H]3C[C@](C)(C(=O)OP(=O)(OC(C)C)OC(C)C)CC[C@]3(C)CC[C@]12C [XS0492]
[2]
  PARP cleavage in comparison with YXY101: can more significantly induce PARP cleavage
[6]; [16]
  pKd: 5.89
[5]
  P-mTOR, P-p70S6K, and P—S6 in comparison with YXY101: can more significantly reduce P-mTOR, P-p70S6K, and P—S6

## Cc1c(O)c(O)cc2c1CC=C1[C@@]2(C)CC[C@@]2(C)[C@@H]3C[C@](C)(CO)CC[C@]3(C)CC[C@]12C [XS0503]
[1]; MDA-MB-231, 24 h, read-out: IC50 for inhibiting the proliferation
  pIC50: 5.92
[7]; MCF7, MCF-7, 24 h
  pIC50: 5.58

## COC(=O)[C@]1(C)CC[C@]2(C)CC[C@]3(C)C4=CC(S(=O)(=O)[O-])c5c(cc(O)c(O)c5C)[C@]4(C)CC[C@@]3(C)[C@@H]2C1.[Na+] (stereo partly shown) [XS0508]
[2]
  PARP cleavage in comparison with YXY101: can more significantly induce PARP cleavage

## CC1=C(O)C(=O)C=C2C1=CC=C1[C@@]2(C)CC[C@@]2(C)[C@@H]3C[C@](C)(C(=O)O)CC[C@]3(C)CC[C@]12C [YXY101, Celastrol]
[1]; MDA-MB-231, 72 h, read-out: IC50 for inhibiting the proliferation
  pIC50: 5.92
[8]
  pIC50: 6.61
[9]
  pIC50: 5.58
[10]
  pIC50: 5.92
[7]; MCF7, 72 h
  pIC50: 4.94
[11]; [17]
  adipose tissue morphology: the adipose tissue cells were arranged disorderly and some of the fibers were broken
  heart tissue morphology: arranged disorderly
  liver tissue morphology: the lobuli hepatis boundaries were blurred, the cytoplasm was reduced, and most of the hepatocytes died
  small intestine tissue morphology: the intestinal tissue was swollen apparently, the cell death increases, the inflammatory reaction was obvious, the intestinal villi were arranged disorderly
[11]; [18]
  adipose tissue morphology: the adipose tissue cells were arranged disorderly and had many inflammatory cell infiltration
  heart tissue morphology: arranged disorderly
  kidney tissue morphology: the kidney tissue had blurred glomerulus boundaries and many inflammatory cell infiltration, and the arrangement was not neat
  liver tissue morphology: the lobuli hepatis had substantially obvious boundaries, the hepatocytes were plump and had normal morphology
[12]
  pIC50: 4.13
[13]
  pIC50: 4.24
[14]
  pIC50: 6.73
